Measurements: patent publication US9976141B2, “Compositions and methods for inhibiting gene expression of Hif2alpha” (Arrowhead Madison Inc., priority 2015, dated 2018)
Strand notation (5' to 3'): a small letter for the sugar, then the base; units joined by * are phosphorothioate-linked, units joined directly phosphodiester-linked; [ ] holds rarer units or linkages, { } end groups; capitals alone tell only the bases. d = 2'-deoxy (DNA); m = 2'-O-methyl; f = 2'-fluoro

System: human EPAS1 (Hif2α) cDNA in psiCHECK2 (Renilla luciferase/EPAS1 fusion mRNA) in Hep3B cells
Assay: Efficacy screen of Hif2α RNAi triggers in vitro, dual-luciferase reporter assay (1 nM and 0.1 nM)
Type: cell-based
Conditions: Hep3B cells co-transfected with EPAS1-psiCHECK2, Renilla luciferase normalized to firefly luciferase
From the text: Candidate sequences were identified by in silico analysis and screened as chemically modified canonical siRNAs in vitro. For screening purposes, the human EPAS1 (Hif2α) cDNA sequence (accession #NM 001430) was synthesized and cloned (DNA 2.0, Menlo Park, Calif.) into a commercially-available reporter-based screening plasmid, psiCHECK2 (Promega, Madison, Wis.) which generated a Renilla luciferase/EPAS1 fusion mRNA. For RNAi trigger efficacy evaluation, Hep3B cells, a human hepatocellular carcinoma line, were plated at 10,000 cells per well in 96-well format. Each of the 187 EPAS1 RNAi triggers, in two subsets, was co-transfected at two concentrations, 1 nM and 0.1 nM, with 25 ng EPAS1-psiCHECK2 plasmid DNA per well and 0.2 μL LipoFectamine 2000 (Life Technologies) per well. Gene knockdown was determined by measuring Renilla luciferase levels normalized to the levels of constitutively-expressed firefly luciferase, also present on the psiCHECK-2 plasmid, using the Dual Luciferase Reporter Assay (Promega, Madison, Wis.) Table 5.

Substance	Relative Rluc-Hif2α (0.1 nM RNAi trigger)	Relative Rluc-Hif2α (1 nM RNAi trigger)
2355 (sense fCmAfUmAfGmGfUmGfUmGfAmCfAmAfUmCfCmGfAdT; antisense dTfCmGfGmAfUmUfGmUfCmAfCmAfCmCfUmAfUmGdT*dT; siRNA) [compound 2355]	0.457 ± 0.066	0.248 ± 0.063
2267 (sense fUmUfGmGfCmCfGmCfUmCfAmGfCmCfUmAfUmGfAdT; antisense dTfCmAfUmAfGmGfCmUfGmAfGmCfGmGfCmCfAmAdT*dT; siRNA) [compound 2267]	1.029 ± 0.104	0.651 ± 0.049
2235 (sense fGmAfCmUfCmCfCmAfGmCfAmUfUmCfGmAfGmCfAdT; antisense dTfGmCfUmCfGmAfAmUfGmCfUmGfGmGfAmGfUmCdT*dT; siRNA) [compound 2235]	0.743 ± 0.129	0.857 ± 0.090
2403 (sense fCmCfUmGfUmCfAmAfCmGfUmAfAmCfGmAfUmUfAdT; antisense dTfAmAfUmCfGmUfUmAfCmGfUmUfGmAfCmAfGmGdT*dT; siRNA) [compound 2403]	0.930 ± 0.132	0.568 ± 0.106
2360 (sense fGmGfGmAfGmCfAmCfUmGfCmGfCmGfCmUfAmUfAdT; antisense dTfAmUfAmGfCmGfCmGfCmAfGmUfGmCfUmCfCmCdT*dT; siRNA) [compound 2360]	1.102 ± 0.119	0.962 ± 0.167
2281 (sense fUmGfCmUfCmGfCmAfAmAfGmCfAmUfGmGfGmGfAdT; antisense dTfCmCfCmCfAmUfGmCfUmUfUmGfCmGfAmGfCmAdT*dT; siRNA) [compound 2281]	0.914 ± 0.177	0.651 ± 0.041
2378 (sense fAmAfCmUfAmCfCmAfUmGfAmGfAmUfGmGfUmUfAdT; antisense dTfAmAfCmCfAmUfCmUfCmAfUmGfGmUfAmGfUmUdT*dT; siRNA) [compound 2378]	0.994 ± 0.246	0.734 ± 0.170
2377 (sense fUmGfGmUfCmUfUmUfCmAfCmAfCmGfGmCfAmCfAdT; antisense dTfGmUfGmCfCmGfUmGfUmGfAmAfAmGfAmCfCmAdT*dT; siRNA) [compound 2377]	0.900 ± 0.189	0.958 ± 0.189
2244 (sense fGmGfGmAfCmUfUmAfCmAfCmAfGmGfUmGfGmAfAdT; antisense dTfUmCfCmAfCmCfUmGfUmGfUmAfAmGfUmCfCmCdT*dT; siRNA) [compound 2244]	0.760 ± 0.050	0.915 ± 0.115
2278 (sense fCmCfAmGfUmAfCmCfGmGfAmUfGmCfUmCfGmCfAdT; antisense dTfGmCfGmAfGmCfAmUfCmCfGmGfUmAfCmUfGmGdT*dT; siRNA) [compound 2278]	0.947 ± 0.044	0.564 ± 0.070
2268 (sense fUmAfUmGfAmAfUmUfCmUfAmCfCmAfUmGfCmGfAdT; antisense dTfCmGfCmAfUmGfGmUfAmGfAmAfUmUfCmAfUmAdT*dT; siRNA) [compound 2268]	0.409 ± 0.023	0.210 ± 0.037
2339 (sense fGmGfGmUfCmAfAmCfUmCfCmAfAmCfGmUfAmUfAdT; antisense dTfAmUfAmCfGmUfUmGfGmAfGmUfUmGfAmCfCmCdT*dT; siRNA) [compound 2339]	0.523 ± 0.134	0.189 ± 0.028
2273 (sense fUmCfUmAfCmCfAmUfGmCfGmCfUmAfGmAfCmUfAdT; antisense dTfAmGfUmCfUmAfGmCfGmCfAmUfGmGfUmAfGmAdT*dT; siRNA) [compound 2273]	0.574 ± 0.033	0.588 ± 0.057
2337 (sense fAmCfUmAfAmAfAmAfGmAfUmUfCmCfUmCfGmUfAdT; antisense dTfAmCfGmAfGmGfAmAfUmCfUmUfUmUfUmAfGmUdT*dT; siRNA) [compound 2337]	0.334 ± 0.066	0.131 ± 0.033
2240 (sense fCmGfUmCfUmGfAmAfCmGfUmCfUmCfAmAfAmGfAdT; antisense dTfCmUfUmUfGmAfGmAfCmGfUmUfCmAfGmAfCmGdT*dT; siRNA) [compound 2240]	0.841 ± 0.048	0.845 ± 0.052
2398 (sense fCmCfCmUfAmCfCmUfGmUfCmAfAmCfGmUfAmAfAdT; antisense dTfUmUfAmCfGmUfUmGfAmCfAmGfGmUfAmGfGmGdT*dT; siRNA) [compound 2398]	1.047 ± 0.047	0.534 ± 0.043
2245 (sense fAmCfAmCfAmGfGmUfGmGfAmGfCmUfAmAfCmAfAdT; antisense dTfUmGfUmUfAmGfCmUfCmCfAmCfCmUfGmUfGmUdT*dT; siRNA) [compound 2245]	0.761 ± 0.039	0.727 ± 0.066
2410 (sense fUmAfUmUfGmUfCmGfAmAfUmUfCmCfUmAfCmUfAdT; antisense dTfAmGfUmAfGmGfAmAfUmUfCmGfAmCfAmAfUmAdT*dT; siRNA) [compound 2410]	0.228 ± 0.033	0.154 ± 0.022
2261 (sense fAmGfGmCfCmGfUmAfCmUfGmUfCmAfAmCfCmUfAdT; antisense dTfAmGfGmUfUmGfAmCfAmGfUmAfCmGfGmCfCmUdT*dT; siRNA) [compound 2261]	0.568 ± 0.065	0.657 ± 0.067
2369 (sense fGmCfGmGfGmGfAmAfGmUfGmCfUmCfUmAfAmCfAdT; antisense dTfGmUfUmAfGmAfGmCfAmCfUmUfCmCfCmCfGmCdT*dT; siRNA) [compound 2369]	0.464 ± 0.032	0.338 ± 0.055
2335 (sense fAmGfUmAfCmAfCmAfAmUfUmGfUmUfUmUfAmCfAdT; antisense dTfGmUfAmAfAmAfCmAfAmUfUmGfUmGfUmAfCmUdT*dT; siRNA) [compound 2335]	0.311 ± 0.032	0.104 ± 0.013
2306 (sense fCmCfCmCfCmAfGmAfUmCfCmAfCmCfAmUfUmAfAdT; antisense dTfUmAfAmUfGmGfUmGfGmAfUmCfUmGfGmGfGmGdT*dT; siRNA) [compound 2306]	0.596 ± 0.038	0.613 ± 0.031
2396 (sense fUmUfAmAfCmCfCmUfAmCfCmUfGmUfCmAfAmCfAdT; antisense dTfGmUfUmGfAmCfAmGfGmUfAmGfGmGfUmUfAmAdT*dT; siRNA) [compound 2396]	1.321 ± 0.070	0.939 ± 0.299
2374 (sense fGmCfUmAfUmGfUmGfAmCfUmCfGmGfAmUfGmGfAdT; antisense dTfCmCfAmUfCmCfGmAfGmUfCmAfCmAfUmAfGmCdT*dT; siRNA) [compound 2374]	0.355 ± 0.020	0.192 ± 0.014
2395 (sense fUmAfUmUfAmAfCmCfCmUfAmCfCmUfGmUfCmAfAdT; antisense dTfUmGfAmCfAmGfGmUfAmGfGmGfUmUfAmAfUmAdT*dT; siRNA) [compound 2395]	0.494 ± 0.104	0.218 ± 0.029
2308 (sense fAmUfUmUfUmGfGmGfCmCfCmAfCmAfAmAfGmUfAdT; antisense dTfAmCfUmUfUmGfUmGfGmGfCmCfCmAfAmAfAmUdT*dT; siRNA) [compound 2308]	0.799 ± 0.084	0.998 ± 0.059
